The record followed here is patent US12534429B2, “Heterodimers of glutamic acid” (Molecular Insight Pharmaceuticals, Inc., priority 2006, dated 2026).

Data set [1] can be described thus: Microsome assay (stability in rat liver microsomes). The class given is in vitro ADME. Particulars: 37° C., 60 min incubation; MIP-1072 50 μM, phenacetin 100 μM. The protocol: Pooled male rat liver microsomes (1 mg/mL, BD Biosciences), NADPH regenerating system (1.3 mM NADP, 3.3 mM glucose 6-phosphate and 0.4 U/mL glucose 6-phosphate dehydrogenase, BD Biosciences) and test compound (50 μM MIP-1072, 50 μM DCT, and 100 μM phenacetin) were added to 0.1 M potassium phosphate buffer (pH 7.4) in order to monitor the catastrophic degradation of the test compounds. The mixture was incubated at 37° C. and at the indicated time (0, 15, 60 min) the reaction was stopped by the addition of an equal volume of ice cold methanol (500 μL). The resulting slurry was then centrifuged at 21,000×G for 10 min and the supernatant was collected and injected onto an Agilent LCMS model MSD SL using a 95:5 water:acetonitrile (with 0.1% formic acid) to 40:60 water:acetonitrile (with 0.1% formic acid) gradient and monitoring for the parent ion only in single ion mode. The results, shown in FIGS. 11A and 11B, are expressed as degradation of the parent ion with respect to the 0 min time point.
The stability of MIP-1072 was assessed using rat liver microsomes. MIP-1072 (50 μM) and Phenacetin (100 μM) were incubated with rat liver microsomes at 37° C. for the indicated time. Phenacetin was used as a control substance that is known to be metabolized. MIP-1072 was not degraded by the rat liver microsomes during the incubation period. […]

In data set [2] the target is T1, PSMA on LNCaP cells (Homo sapiens, UniProt Q04609).
T1 construct: LNCaP human prostate cancer cells were obtained from American Type Culture Collection; host or cells: LNCaP human prostate cancer cells
T1 sequence (Q04609 whole entry): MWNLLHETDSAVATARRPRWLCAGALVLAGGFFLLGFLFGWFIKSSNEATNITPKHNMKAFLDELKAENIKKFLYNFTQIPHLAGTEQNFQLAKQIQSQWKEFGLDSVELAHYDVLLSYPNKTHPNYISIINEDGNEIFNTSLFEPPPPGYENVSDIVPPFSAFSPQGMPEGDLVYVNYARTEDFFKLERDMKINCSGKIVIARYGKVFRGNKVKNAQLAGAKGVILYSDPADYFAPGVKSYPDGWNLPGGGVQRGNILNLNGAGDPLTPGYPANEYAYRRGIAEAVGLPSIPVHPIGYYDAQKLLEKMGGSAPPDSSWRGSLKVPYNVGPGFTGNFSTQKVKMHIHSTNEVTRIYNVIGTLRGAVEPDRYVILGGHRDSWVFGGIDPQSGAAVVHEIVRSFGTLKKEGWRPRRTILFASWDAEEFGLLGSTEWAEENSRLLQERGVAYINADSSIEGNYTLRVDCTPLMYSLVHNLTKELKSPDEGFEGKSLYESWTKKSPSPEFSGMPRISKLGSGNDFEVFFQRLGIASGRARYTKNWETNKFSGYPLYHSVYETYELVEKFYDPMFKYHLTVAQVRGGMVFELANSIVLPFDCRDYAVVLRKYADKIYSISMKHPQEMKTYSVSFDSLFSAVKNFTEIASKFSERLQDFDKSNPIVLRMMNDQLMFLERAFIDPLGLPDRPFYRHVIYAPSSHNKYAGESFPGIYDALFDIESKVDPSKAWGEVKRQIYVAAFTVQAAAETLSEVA
The data set can be described thus: In vitro cell binding: competition with I-131 DCIT for binding to PSMA on LNCaP cells. Particulars: LnCap cells, dose curves; read-out: IC50 values versus I-131 DCIT. The protocol: In vitro cold screening assays verses I-131 DCIT. LNCaP and PC3 human prostate cancer cells were obtained from American Type Culture Collection, Rockville, MD LNCaP cells were maintained in RPMI-1640 medium supplemented with 10% fetal bovine serum (FBS). PC3 cells were grown in F12K medium supplemented with 10% FBS. Binding of the radiolabeled compound and competition with cold derivatives to LNCaP and PC-3 cells was performed according to the methods of Tang et al. (Tang, H.; Brown, M.; Ye, Y.; Huang, G.; Zhang, Y.; Wang, Y.; Zhai, H.; Chen, X.; Shen, T. Y.; Tenniswood, M., Prostate targeting ligands based on N-acetylated alpha-linked acidic dipeptidase, Biochem. Biophys. Res. Commun. 2003, 307, 8-14) with appropriate modifications. Cells were plated in 12-well plates at approximately 4×10^5 cells/well and incubated for 48 hours in a humidified incubator at 37° C./5% carbon dioxide prior to addition of compound. Each unique SAAC-urea-Glu conjugate was prepared and diluted in serum-free cell culture medium containing 0.5% bovine serum albumin (BSA) in combination with 3 nM I-131 DCIT (known inhibitor). Total binding was determined by incubating I-131 DCIT without test compound. Plates were incubated at room temperature for 1 hour. Cells were removed from the plates by gently pipeting and transferred to eppendorff tubes. Samples were microcentrifuged for 15 seconds at 10K×g. The medium was aspirated and the pellet was washed twice by dispersal in fresh assay medium followed by microcentrifugation. Cell binding of I-131 DCIT was determined by counting the cell pellet in an automated gamma counter. […] The control compounds are depicted below.
The ability of non-radioactive analogs to compete with ^131I-DCIT for binding to PSMA was tested in the PSMA positive human prostate cancer cell line, LNCaP cells. LNCaP cells (300,000 cells/well) were incubated for 1 hour with 3 nM [^131I]-DCIT in the presence of 1-10,000 nM MIP-1072 in RPMI-1640 medium supplemented with 0.5% bovine serum albumin, then washed and counted in a gamma counter. All documents cited in this specification including patent applications are incorporated by reference in their entirety.

Data set [3] addresses T1, PSMA on LNCaP cells. The data set is described as follows: Saturation binding analysis of radiolabeled MIP-1072 in LNCaP cells. The protocol: The affinity constant (Kd) of MIP-1072 was determined by saturation binding analysis (FIG. 18). LNCaP cells were incubated for 1 hour with 30-100,000 pM ^131I-MIP-1072 in HBS (50 mM Hepes, pH 7.5, 0.9% sodium chloride) at either 4° C. or 37° C. in the absence or presence of 10 μM unlabeled MIP-1072 (to determine non-specific binding). Cells were then washed and the amount of radioactivity was measured on a gamma counter. Specific binding was calculated as the difference between total binding and nonspecific binding. […] The Bmax, however, was greater at 37° C. than at 4° C.; […] fmol/10^6 cells, respectively, indicating internalization of MIP-1072. The results below are representative of two independent analyses.

For the next data set, the system named is LnCap cells. The data set is described as follows: Rate of uptake and internalization (acid wash assay) of MIP-1072 in LNCaP cells. The class given is cell-based, human. The conditions noted are these: 100 nM; for internalization in LNCaP cells: 4° C. and 37° C. The protocol: In order to confirm the results of the Scatchard analysis of FIG. 7 indicating MIP-1072 internalization into LNCaP cells, the rate of uptake of MIP-1072 in LNCaP cells was monitored. Each well was dosed with 100 nM MIP-1072 (2 uCi/well) at 4° C. and 37° C. Binding to PSMA reached equilibrium after 15 min as evidenced by the plateau in the curve at 4° C. The cells incubated at 37° C. continued to internalize MIP-1072 after equilibrium had been reached.
The ability of MIP-1072 to internalize in LNCaP cells was confirmed by an acid wash assay (FIG. 19). LNCaP cells were incubated in HBS with 100 nM ^123I-MIP-1072 for 0-2 hours at 4 and 37° C. At the indicated time the media was removed and the cells were incubated in mild acid buffer (50 mM glycine, 150 mM NaCl, pH 3.0) at 4° C. for 5 minutes. After the brief incubation the cells were centrifuged at 20,000×g for 5 minutes. The supernatant and cell pellet were counted in a gamma counter. In order to confirm the results of the saturation binding analysis indicating MIP-1072 internalization into LNCaP cells, we monitored the rate of uptake of MIP-1072 in LNCaP cells. Each well was dosed with 100 nM MIP-1072 (2 uCi/well) at 4° C. and 37° C. Binding to PSMA reached equilibrium after 15 min as evidenced by the plateau in the curve at 4° C. The cells incubated at 37° C. continued to internalize MIP-1072 after equilibrium had been reached. […] (FIG. 19).

The test system of data set [4] is LNCaP (PSMA positive) tumors. The data set can be described thus: Tissue biodistribution of I-131 MIP 1072 in xenograft tumored mice, LNCaP tumors. The class given is in vivo. Particulars: I-131-labeled. An excerpt: (§1) The lead compound, MIP 1072, was I-131-labeled for tissue distribution studies in mice with both LNCaP (PSMA positive) and PC3 (PSMA negative) tumors implanted. The compound was radiolabeled by the route shown below.
(§2) A graph depicting the mice distribution is shown below (FIG. 12).

Data set [5] relates to PC3 (PSMA negative) tumors. The data set is described as follows: Tissue biodistribution of I-131 MIP 1072 in xenograft tumored mice, PC3 tumors. The class given is in vivo. The conditions noted are these: I-131-labeled.
Description: as §1, §2

Data set [6] deals with PSMA positive LNCaP xenografts. The class given is in vivo, male NCr Nude mice. The protocol:
Tissue biodistribution of I^23I-MIP-1072 (2 μCi/mouse, >1,000 mCi/μmole) was assessed in selected tissues from LNCaP (PSMA positive) tumor bearing nude mice. Results are expressed as the percent of the injected dose per gram of the selected tissues (% ID/g).
(§3) FIG. 21 Uptake of ^23I-MIP-1072 in LNCaP and PC3 xenograft bearing mice.
(§4) A quantitative analysis of the tissue distribution of ^123I-MIP-1072 was performed in separate groups of male NCr Nude^−/− mice bearing PSMA positive LNCaP xenografts (approximately 100-200 mm^3) administered via the tail vein as a bolus injection (approximately 2 μCi/mouse) in a constant volume of 0.05 ml. The animals (n=5/time point) were euthanized by asphyxiation with carbon dioxide at 0.25, 1, 2, 4, 8, and 24 hours post injection. Tissues (blood, heart, lungs, liver, spleen, kidneys, adrenals, stomach, large and small intestines (with contents), testes, skeletal muscle, bone, brain, adipose, and tumor) were dissected, excised, weighed wet, transferred to plastic tubes and counted in an automated γ-counter (LKB Model 1282, Wallac Oy, Finland). […] MIP-1072, uptake and exposure was greatest in the kidney and LNCaP xenograft which express high levels of PSMA. Peak uptake in the kidney was 158±46% ID/g at 2 hours and the LNCaP xenograft was 17±6% ID/g at 1 hours (FIG. 20).

Data set [7] relates to PC3 tumors which do not express PSMA. The data set can be described thus: Tumor uptake of 123I-MIP-1072 in PC3 xenograft bearing mice. Format: in vivo, male NCr Nude mice. The conditions noted are these: 1 hour post injection. The protocol: as §3, §4

Some results are limits rather than exact numbers.

Regarding `CCOc1ccc(NC(C)=O)cc1` [phenacetin, reference compound], the “degradation of the parent by rat liver microsomes” value in data set [1] is recorded as 22%.

`O=C(O)CC[C@H](NC(=O)N[C@@H](CCCCNCc1ccc(I)cc1)C(=O)O)C(=O)O` [MIP 1072, (S, S)-2-{3-[1-Carboxy-5-(4-iodo-benzylamino)-pentyl]-ureido}-pentanedioic]: on PSMA on LNCaP cells [2], the half-maximal inhibitory concentration (IC50) was below 50 nM. In addition, the Bmax on PSMA on LNCaP cells [3] (4° C.) is 1,490 fmoles/10^6 cells; on PSMA on LNCaP cells [3] (37° C.), 4,400 fmol/10^6 cells. Besides, the dissociation constant (Kd) at PSMA on LNCaP cells [3] (4° C., nonlinear regression) worked out at 4.8 nM; on PSMA on LNCaP cells [3] (37° C.) it was 8.1 nM. In addition, in the data set with LnCap cells, the “internalization in LNCaP cells” value was “internalized”. In addition, the “time at which binding to PSMA reached equilibrium” value in the data set with LnCap cells (4° C., LNCaP cells) was 15 min. For the same compound, the “degradation of the parent by rat liver microsomes” value in data set [1] is recorded as “not degraded”. The “uptake in LNCaP (PSMA positive) tumors” value in data set [4] is reported as “significant uptake”. In data set [5], the “activity in PC3 (PSMA negative) tumors” value was “very little activity”.

As to `O=C(O)CC[C@H](NC(=O)N[C@@H](CCCCNCc1ccc([123I])cc1)C(=O)O)C(=O)O` [123I-MIP-1072], in the data set on LnCap cells, the “internalization in LNCaP cells” value was “internalized at 37 °C but not at 4 °C”. Moreover, the “tumor and kidney uptake after pretreatment with PMPA” value in data set [6] (50 mg/kg PMPA 5 minutes prior to injection, 1 hour post injection) is listed as “blocked”. The “localization to PSMA expressing LNCaP tumors” value in data set [6] (1 hour post injection) is “localization to PSMA expressing LNCaP tumors”. In addition, in data set [6] (at 1 hours post injection, tail vein bolus), the “peak uptake in the LNCaP xenograft” value turned out to be 17±6 % ID/g. Further, in data set [7], the “localization to PC3 tumors” value was “not PC3 tumors”.
